Test results from patent publication US20230126893A1, “[(1,4,5-TRISUBSTITUTED-1H-PYRAZOL-3-YL)SULFANYL]ACETIC ACID DERIVATIVES, SALTS THEREOF, AND USE THEREOF AS ACTIVE HERBICIDAL INGREDIENTS” (BAYER AKTIENGESELLSCHAFT, priority 2020, published 2023).

Assays:
Format in all cases: in vivo
Poa annua [1] = assay: Post-emergence herbicidal effect against POAAN; settings: 1280 g/ha, visual assessment about 3 weeks after treatment, 100% = plants have died, 0% = like control plants
Method: (§1) [table] 2. Post-emergence herbicidal effect and crop plant compatibility Seeds of monocotyledonous and dicotyledonous weed and crop plants are laid out in sandy loam soil in wood-fibre pots, covered with soil and cultivated in a greenhouse under good growth conditions. 2 to 3 weeks after sowing, the test plants are treated at the one-leaf stage. The compounds of the invention, formulated in the form of wettable powders (WP) or as emulsion concentrates (EC), are then sprayed onto the green parts of the plants as aqueous suspension or emulsion at a water application rate equating to 600 to 800 l/ha with addition of 0.2% wetting agent. After the test plants have been left to stand in the greenhouse under optimal growth conditions for about 3 weeks, the action of the preparations is assessed visually in comparison to untreated controls (herbicidal action in percent (%): 100% activity=the plants have died, 0% activity=like control plants).

Amaranthus retroflexus [2] = assay: Post-emergence herbicidal effect against AMARE; settings: 1280 g/ha, visual assessment about 3 weeks after treatment, 100% = plants have died, 0% = like control plants
Method: as §1

Digitaria sanguinalis [3] = assay: Pre-emergence herbicidal effect against DIGSA; settings: 1280 g/ha, visual score after 3 weeks, 100% = plants have died, 0% = like control plants
Source text: (§2) 1. Pre-emergence herbicidal effect and crop plant compatibility Seeds of monocotyledonous and dicotyledonous weed plants and crop plants are laid out in sandy loam soil in wood-fibre pots and covered with soil. The compounds of the invention, formulated in the form of wettable powders (WP) or as emulsion concentrates (EC), are then applied to the surface of the covering soil as aqueous suspension or emulsion at a water application rate equating to 600 to 800 L/ha with addition of 0.2% wetting agent. After the treatment, the pots are placed in a greenhouse and kept under good growth conditions for the trial plants. The damage to the test plants is scored visually after a test period of 3 weeks by comparison with untreated controls (herbicidal activity in percent (%): 100% activity=the plants have died, 0% activity=like control plants). [table]

Poa annua [4] = assay: Pre-emergence herbicidal effect against POAAN; settings: 1280 g/ha, visual score after 3 weeks, 100% = plants have died, 0% = like control plants
Source text: as §2

[5] = system: Tripleurospermum inodorum; assay: Post-emergence herbicidal effect against MATIN; settings: 1280 g/ha, visual assessment about 3 weeks after treatment, 100% = plants have died, 0% = like control plants
Method: as §1

Stellaria media [6] = assay: Pre-emergence herbicidal effect against STEME; settings: 1280 g/ha, visual score after 3 weeks, 100% = plants have died, 0% = like control plants
Source text: as §2

Setaria viridis [7] = assay: Pre-emergence herbicidal effect against SETVI; settings: 1280 g/ha, visual score after 3 weeks, 100% = plants have died, 0% = like control plants
Source text: as §2

Amaranthus retroflexus [8] = assay: Pre-emergence herbicidal effect against AMARE; settings: 1280 g/ha, visual score after 3 weeks, 100% = plants have died, 0% = like control plants
Source text: as §2

Stellaria media [9] = assay: Post-emergence herbicidal effect against STEME; settings: 1280 g/ha, visual assessment about 3 weeks after treatment, 100% = plants have died, 0% = like control plants
Method: as §1

Veronica persica [10] = assay: Post-emergence herbicidal effect against VERPE; settings: 1280 g/ha, visual assessment about 3 weeks after treatment, 100% = plants have died, 0% = like control plants
Method: as §1

Lolium rigidum = assay: Pre-emergence herbicidal effect against LOLRI; settings: 1280 g/ha, visual score after 3 weeks, 100% = plants have died, 0% = like control plants
Source text: as §2

Alopecurus myosuroides [11] = assay: Post-emergence herbicidal effect against ALOMY; settings: 1280 g/ha, visual score after about 3 weeks, 100% = plants have died, 0% = like control plants
Method: as §1

Veronica persica [12] = assay: Pre-emergence herbicidal effect against VERPE; settings: 1280 g/ha, visual score after 3 weeks, 100% = plants have died, 0% = like control plants
Source text: as §2

[13] = system: Tripleurospermum inodorum; assay: Pre-emergence herbicidal effect against MATIN; settings: 1280 g/ha, visual score after 3 weeks, 100% = plants have died, 0% = like control plants
Source text: as §2

Alopecurus myosuroides [14] = assay: Pre-emergence herbicidal effect against ALOMY; settings: 1280 g/ha, visual score after 3 weeks, 100% = plants have died, 0% = like control plants
Source text: as §2

Echinochloa crus-galli [15] = assay: Pre-emergence herbicidal effect against ECHCG; settings: 1280 g/ha, visual score after 3 weeks, 100% = plants have died, 0% = like control plants
Source text: as §2

Setaria viridis [16] = assay: Post-emergence herbicidal effect against SETVI; settings: 1280 g/ha, visual assessment about 3 weeks after treatment, 100% = plants have died, 0% = like control plants
Method: as §1

Echinochloa crus-galli [17] = assay: Post-emergence herbicidal effect against ECHCG; settings: 1280 g/ha, visual score after about 3 weeks, 100% = plants have died, 0% = like control plants
Method: as §1

Digitaria sanguinalis [18] = assay: Post-emergence herbicidal effect against DIGSA; settings: 1280 g/ha, visual score after about 3 weeks, 100% = plants have died, 0% = like control plants
Method: as §1

Abutylon threophrasti = assay: Post-emergence herbicidal effect against ABUTH; settings: 1280 g/ha, visual assessment about 3 weeks after treatment, 100% = plants have died, 0% = like control plants
Method: as §1

Bassia scoparia = assay: Post-emergence herbicidal effect against KCHSC; settings: 1280 g/ha, visual assessment about 3 weeks after treatment, 100% = plants have died, 0% = like control plants
Method: as §1

Row | Compound | Post-emergence action against POAAN (Poa annua [1]) | Post-emergence action against AMARE (Amaranthus retroflexus [2]) | Pre-emergence action against DIGSA (Digitaria sanguinalis [3]) | Pre-emergence action against POAAN (Poa annua [4]) | Post-emergence action against MATIN [5] | Pre-emergence action against STEME (Stellaria media [6]) | Pre-emergence action against SETVI (Setaria viridis [7]) | Pre-emergence action against AMARE (Amaranthus retroflexus [8]) | Post-emergence action against STEME (Stellaria media [9]) | Post-emergence action against VERPE (Veronica persica [10]) | Pre-emergence action against LOLRI (Lolium rigidum) | Post-emergence action against ALOMY (Alopecurus myosuroides [11]) | Pre-emergence action against VERPE (Veronica persica [12]) | Pre-emergence action against MATIN [13] | Pre-emergence action against ALOMY (Alopecurus myosuroides [14]) | Pre-emergence action against ECHCG (Echinochloa crus-galli [15]) | Post-emergence action against SETVI (Setaria viridis [16]) | Post-emergence action against ECHCG (Echinochloa crus-galli [17]) | Post-emergence action against DIGSA (Digitaria sanguinalis [18]) | Post-emergence action against ABUTH (Abutylon threophrasti) | other results
1 | CCOC(=O)CSc1nn(-c2cccc(F)c2F)c(-c2ccccc2)c1Br [Example I-004] | 100% | 90% | 100% | 100% | 100% | 100% | 100% | 100% | 90% | 90% | 100% | 100% | 100% | 100% | 90% | 90% | – | – | – | – | –
2 | CCOC(=O)CSc1nn(-c2ccccc2F)c(-c2ccc(F)c(F)c2)c1C(F)(F)F [Example I-018] | 100% | – | 100% | 100% | 90% | 100% | 100% | – | – | 100% | 100% | – | 100% | 100% | 90% | 100% | 100% | 90% | 90% | 90% | –
3 | CCOC(=O)CSc1nn(-c2cc(F)ccc2F)c(-c2ccc(F)cc2)c1Br [Example I-020] | 90% | – | 100% | 100% | 90% | 100% | 100% | – | 90% | 90% | 100% | 100% | 100% | 100% | 90% | – | 90% | 90% | 90% | – | Post-emergence action against KCHSC (Bassia scoparia): 90%
4 | CC(Sc1nn(-c2ccccc2F)c(-c2ccc(F)c(F)c2)c1Br)C(=O)O (stereo not drawn) [Example I-022] | 100% | – | 100% | 90% | 100% | 100% | 100% | 90% | 90% | 100% | 100% | 100% | 100% | 90% | 90% | 90% | – | 100% | 90% | 90% | Post-emergence action against KCHSC (Bassia scoparia): 90%
5 | O=C(O)CSc1nn(-c2ccccc2F)c(-c2ccc(F)c(F)c2)c1[N+](=O)[O-] [Example I-024] | 100% | – | 100% | 100% | 100% | 100% | 100% | – | – | 100% | 100% | 100% | 100% | 100% | 90% | 90% | 100% | 90% | 100% | 90% | Post-emergence action against KCHSC (Bassia scoparia): 90%
6 | CCOC(=O)CSc1nn(-c2ccccc2F)c(-c2sncc2C)c1Br [Example V-001] | – | 100% | 90% | 90% | – | – | – | 100% | – | 90% | – | – | – | 90% | – | – | – | – | – | – | –
7 | Cc1cnsc1-c1c(Br)c(SCC(=O)O)nn1-c1ccccc1F [Example V-002] | – | – | – | 100% | – | – | 100% | 100% | – | – | – | – | – | 100% | – | – | – | – | – | – | –
8 | O=C(O)CSc1nn(-c2ccccc2)c(-c2cncnc2)c1Br [III-002] | 100% | – | 100% | 100% | 90% | 100% | 100% | 100% | 90% | 100% | – | – | 100% | 100% | – | 100% | – | – | – | – | –
9 | CCOC(=O)CSc1nn(-c2ccccc2F)c(-c2cc(Cl)cs2)c1Br [IV-001] | – | 90% | – | 90% | – | 100% | – | 100% | – | 90% | 90% | – | 90% | 90% | – | – | – | – | – | – | –
10 | CCOC(=O)CSc1nn(-c2ccccc2F)c(-c2cnccn2)c1Br [VI-001] | 100% | 90% | 90% | 100% | 100% | 90% | – | – | – | 90% | – | 90% | – | 90% | – | – | – | – | – | 90% | –
11 | COC(=O)CNC(=O)CSc1nn(-c2ccccc2F)c(-c2ccc(F)c(F)c2)c1Cl [VII-001] | 100% | – | 100% | 100% | 90% | 100% | 100% | – | 90% | 90% | 100% | 100% | 100% | 100% | 90% | – | 90% | 100% | 100% | 90% | Post-emergence action against KCHSC (Bassia scoparia): 90%
